Measured values published in US20210068659A1, “Use of Octafluorocyclobutane for Lung Imaging” (Lakehead University, priority 2019, published 2021).

Columns and labels:
[1] = Measured relaxation parameters (19F MRI relaxation times) of pure gases and gas-O2 mixtures in vitro; format: physicochemical; conditions: for T2′ / T1: in vitro, pure gas or gas-O2 breathing mixture; for T1: spin-lattice relaxation time
Text: The relaxation times for OFCB-O2 mixture In Vivo should be measured experimentally. We measured the relaxation times for pure OFCB and OFCB-O2 mixture in vitro.
While we were not first who measured the relaxation times for pure OFCB, to our knowledge, we are the first who characterized the OFCB-O2 breathing mixture.

[2] = Specific Absorption Rate (SAR) / scan safety inferred from the longer spin-lattice relaxation time; conditions: summary statement
Text: While the spin-lattice relaxation time is 60% longer for OFCB compared to PFP, which limits the potential number of signal averages, the longer spin-lattice relaxation means that there are a smaller number of radio pulses with OFCB. This means that the Specific Absorption Rate (SAR) is lower for OFCB-O2 scans. […] The lower SAR value of OFCB scans means that ^19F OFCB lung MRI is safer for patients than MRI scans acquired using other inert fluorinated gases.

SMILES	spin-lattice relaxation time longer compared to PFP ([1]; OFCB compared to PFP)	T2′ [1]	T1 [1]	safer compared to PFP [2]
FC1(F)C(F)(F)C(F)(F)C1(F)F [OFCB, octafluorocyclobutane]	60%	10.5 ± 1.8 ms	27.9 ± 0.8 ms	60%
FC(F)(F)C(F)(F)C(F)(F)F [PFP, perfluoropropane, reference compound]		6.26 ± 0.27 ms	18.6 ± 0.4 ms	
